In patent US5686426A, “Dicarboxymethylated glycolipid derivatives as cell adhesion inhibitors” (Bristol-Myers Squibb Company, priority 1994, dated 1997):

Columns and labels:
[1] = test system: P-selectin; assay: P-Selectin Adhesion Receptor Binding (cell-free ELISA, inhibition of P-selectin binding to immobilized sulfatides)
Source text: P-selectin (GMP140, granule membrane protein-140, PADGEM, or CD62) is a calcium-dependent transmembrane protein found in alpha granules of endothelial cells and platelets. It is an inducible selectin produced on activated endothelium and platelets which recognize alpha(2-3)sialylated and alpha(1-3)fucosylated lactosaminoglycans which include the sequence, Lewis x (Zhou et al., J. Cell. Biol., (1991) 115 (2): 557-564) and sulfatides (3-sulfated galactosyl ceramides, Aruffo, et al., Cell (1991) 67: 35-44). P-selectin may be responsible for the initial adhesion events between endothelium and neutrophils as evidenced by leukocyte rolling induced by P-selectin in flow cells (Lawrence, M., and T. Springer, Cell (1991) 65: 859-873).
Based on the availability of soluble forms of P-selectin prepared as described by Aruffo, A., et al., Cell, 67, 35-44 (1991), a binding ELISA based assay modified from Foxall, et al., J., Cell Biol., 117, 895-902 (1992) was developed to measure inhibitors of P-selectin binding to immobilized sulfatides. Such inhibitors were tested in the assay described below.
0.1 ml of sulfatide (SIGMA) at 1 μg/ml in MeOH was added to 48 wells of a 96-well ELISA plate (ProBind, Falcon) and allowed to dry overnight at room temperature. Another set of 48 wells were incubated with the solvent (methanol, Fisher Scientific). The next day the antigen/solvent coated plates were blocked for 1.5 hours at room temperature with 5% BSA (ICN) in buffer containing 20 mM Hepes, 1 mM CaCl2 and 0.15M NaCl, pH 8.0. Wild type P-selectin was first mixed with HRP-conjugated goat anti-human IgG (1:5000 dilution, Fisher Scientific), and incubated for 30 minutes at 37° C. in buffer containing 20 mM Hepes, 0.15M NaCl, 1% BSA and 1 mM CaCl2, pH 8.0 prior to addition to the BSA blocked plates. Following the 30 minute preincubation, the fusion protein-HRP conjugate immunocomplexes were incubated on the blocked antigen coated plates for 45 minutes at 37° C. in the presence or absence of the test compounds and then washed to remove any unbound proteins. Bound complexes were detected by addition of substrate buffer (95 mM NaOAc.3H2 O, 5 mM citric acid monohydrate, 1.4 mM urea/H2 O2) containing 3, 3', 5, 5' Tetramethylbenzidine (SIGMA). Reactions were stopped by the addition of 3N sulfuric acid and the absorbance read on an ELISA reader at dual wavelengths 450 and 630 nm. The efficacy of these compounds was compared to that of sulfatide (positive control) or to MeOH (negative control). The data is obtained as percent inhibition of specific binding [formula] and a plot of dose vs. percent inhibition of Rg binding is generated in which IC50 (μM) is calculated and reported as cell free data in Table 1.

[2] = test system: HL-60 cells / activated platelets (P-selectin); assay: HL-60 Platelet Cell Adhesion Assay; format: cell-based; conditions: HL-60 cell adhesion to thrombin-activated human platelets
Protocol: HL-60 cells, obtained from American Type Culture Collection, were cultured in RPMI 1640 medium (GIBCO) supplemented with 20% fetal calf serum (Sigma) and 50 μg/ml gentamicin (GIBCO). Cells in log phase growth were harvested, washed and resuspended in Tyrodes buffer containing 5 mM HEPES and 0.2% bovine serum albumin and were fixed with 1% buffered formalin.
Blood from normal human donors was anticoagulated with citrate, layered over 1-Step Platelets (Accurate Chemical Co.), and centrifuged at 350 g for 20 minutes at room temperature. The platelet band was collected, diluted in 2 volumes of Tyrode's Buffer with 5 mM HEPES, 10 mM EDTA, and 0.2% BSA (pH 7.4) (THEB) and centrifuged at 600 g for 10 minutes. The platelet pellet was resuspended in THEB and incubated at room temperature for 1 hour. Calcein-acetoxy methylester (Calcein-Am, Molecular Probes) was added to the platelets at a final concentration of 10 μM and incubated for 10 minutes at 37° C. to label the platelets. Without washing, the platelets were counted on a Coulter counter model ZM, and the concentration was adjusted to 1×10^7 /ml. The platelets were activated with 2 U/ml of human thrombin for 10 minutes in Tyrode's containing 2 mM CaCl2, 5 mM HEPES, and 0.2% BSA (pH 7.4) (THB) at 37° and immediately fixed with 1% buffered formalin for 1 to 2 hours at room temperature. A small aliquot of labeled platelets was removed before activation and designated as non-activated.
Both platelets and HL-60 were washed in a ≥5 fold excess volume of Hanks Balanced Salt Solution (HBSS), resuspended in THB and counted. Cell concentrations were adjusted to 2×10^7 /ml for platelets and 4×10^6 /ml for HL-60, this ratio determined to be optimum for platelet: HL-60 cell adhesion. Compounds were incubated with 50 μl of platelets for 30 minutes at room temperature before addition of 50 μl of HL-60. This ratio of 5:1 platelets to HL-60 was incubated for 30 minutes at room temperature before addition of 0.2 ml of THB to increase the volume so the samples could be analyzed on a FACScan cytometer (Becton Dickinson). Non-activated platelets, and activated platelets with 10 mM EDTA were included as controls. Data were collected within a region set for the forward scatter channel corresponding to HL-60 size events.
The percent HL-60 cells which contained bound platelets was determined for each test condition. The inhibition of binding was determined by comparison to standards which were treated with vehicle alone (representing 0% inhibition) and standards whose specific binding had been blocked by the use of EDTA (representing 100% inhibition), by the following formula: [formula] where x=HL-60 cells containing bound platelets in the presence of the compound;
b=HL-60 cells containing bound platelets in the presence of EDTA;
a=HL-60 cells containing bound platelets in presence of compound vehicle;
z=% inhibition of platelet: HL-60 cell adhesion

Row | IC50 [1] [µM] | IC50 [2] [µM] | Structure (SMILES)
1 | 3.5 | 10.1 | CCCCCCCCCCCCC/C=C/[C@@H](OC(=O)c1ccccc1)[C@H](CO[C@@H]1O[C@H](COCC(=O)O)[C@H](OCC(=O)O)[C@H](OC(=O)c2ccccc2)[C@H]1OC(=O)c1ccccc1)NC(=O)CCCCCCCCCCCCCCC [Example 16, (2S,3R,4E)-2-Hexadecanoylamino-3-benzoyloxy-1-(4,6-di-O-carboxymethyl-2,3-di-O-benzoyl-β-D-galactopyranoside)-4-octadecene]
2 | < 0.03 | 7 | CCCCCCCCCCCCC/C=C/[C@@H](OC(=O)c1ccccc1)[C@H](CO[C@@H]1O[C@H](COCC(=O)O)[C@H](OCC(=O)O)[C@H](OC(=O)c2ccccc2)[C@H]1O)NC(=O)CCCCCCCCCCCCCCC [Example 18, (2S,3R,4E)-3-Benzoyloxy-2-hexadecanoylamino-1-[3-O-benzoyl-4,6-di-O-carboxymethyl-β-D-galactopyranosyloxy]-4-octadecene]

The remaining lines, values behind:

Row | Structure (SMILES) | IC50 [1] [µM] | IC50 [2] [µM]
3 | CCCCCCCCCCCCC/C=C/[C@@H](OC(=O)c1ccccc1)[C@H](CO[C@H]1O[C@H](COCC(=O)O)[C@H](OCC(=O)O)[C@H](OC(=O)c2ccccc2)[C@H]1OC(=O)c1ccccc1)NC(=O)CCCCCCCCCCCCCCC [Example 2, (2S,3R,4E)-3-Benzoyloxy-2-hexadecanoylamino-1-[2,3-di-O-benzoyl-4,6-di-O-carboxymethyl-α-D-galactopyranosyloxy]-4-octadecene] | 0.92 | 32
4 | CCCCCC/C=C/[C@@H](OC(=O)c1ccccc1)[C@H](CO[C@H]1O[C@H](COCC(=O)O)[C@H](OCC(=O)O)[C@H](OC(=O)c2ccccc2)[C@H]1OC(=O)c1ccccc1)NC(=O)CCCCCCCCC(=O)OC [Example 8, (2S,3R,4E)-3-Benzoyloxy-2-(9-methoxycarbonyl-nonanoylamino)-1-(2,3-di-O-benzoyl-4,6-di-O-carboxymethyl-α-D-galactopyranosyloxy)-4-undecene] | > 50 | > 100
5 | CCCCCCCCCCCCC/C=C/[C@@H](OC(=O)c1ccccc1)[C@H](CO[C@H]1O[C@H](COCC(=O)O)[C@H](OCC(=O)O)[C@H](O)[C@H]1OC(=O)c1ccccc1)NC(=O)CCCCCCCCCCCCCCC [Example 14, (2S,3R,4E)-3-Benzoyloxy-2-hexadecanoylamino-1-[2-O-benzoyl-4,6-di-O-carboxymethyl-α-D-galactopyranosyloxy]-4-octadecene] | 0.7 | 20
